Reference: PubChem BioAssay (NCI)
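Each compound was tested at five concentrations against cells in 96-well plates for 48 hours. The concentration for full growth arrest is given as TGI.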

How the values were obtained:
Assay in all cases: inhibition of tumour cell growth, NCI panel, 48 h
[1] = tested on: 786-0 renal
[2] = tested on: A498 renal
[3] = tested on: A549 NSCLC
[4] = tested on: ACHN renal
[5] = tested on: CAKI-1 renal
[6] = tested on: CCRF-CEM leukemia
[7] = tested on: COLO 205 colon
[8] = tested on: DU-145 prostate
[9] = tested on: EKVX NSCLC
[10] = tested on: HCC-2998 colon
[11] = tested on: HCT-116 colon
[12] = tested on: HCT-15 colon
[13] = tested on: HOP-62 NSCLC
[14] = tested on: HOP-92 NSCLC
[15] = tested on: HS 578T breast
[16] = tested on: HT29 colon
[17] = tested on: IGROV1 ovarian
[18] = tested on: K-562 leukemia
[19] = tested on: KM12 colon
[20] = tested on: LOX IMVI melanoma
[21] = tested on: M14 melanoma
[22] = tested on: MCF7 breast
[23] = tested on: MDA-MB-231 breast
[24] = tested on: MDA-MB-435
[25] = tested on: MDA-N
[26] = tested on: MOLT-4 leukemia
[27] = tested on: NCI-H226 lung
[28] = tested on: NCI-H23 lung
[29] = tested on: NCI-H460 lung
[30] = tested on: NCI-H522 lung
[31] = tested on: NCI/ADR-RES ovarian
[32] = tested on: OVCAR-3 ovarian
[33] = tested on: OVCAR-5 ovarian
[34] = tested on: OVCAR-8 ovarian
[35] = tested on: RPMI-8226 leukemia
[36] = tested on: RXF 393 renal
[37] = tested on: SF-268 CNS
[38] = tested on: SF-295 CNS
[39] = tested on: SF-539 CNS
[40] = tested on: SK-MEL-5 melanoma
[41] = tested on: SK-OV-3 ovarian
[42] = tested on: SN12C renal
[43] = tested on: SNB-75 CNS
[44] = tested on: SR leukemia
[45] = tested on: SW-620 colon
[46] = tested on: T-47D breast
[47] = tested on: TK-10 renal
[48] = tested on: U251 CNS
[49] = tested on: UACC-257 melanoma
[50] = tested on: UACC-62 melanoma
[51] = tested on: UO-31 renal
[52] = tested on: HL-60(TB) leukemia
[53] = tested on: MALME-3M melanoma
[54] = tested on: OVCAR-4 ovarian
[55] = tested on: PC-3 prostate
[56] = tested on: SK-MEL-2 melanoma
[57] = tested on: SK-MEL-28 melanoma
[58] = tested on: SNB-19 CNS
[59] = tested on: BT-549 breast

With `CCOC(=O)[C@@H]1ON2O[C@@H](OC3CCCCC3c3ccccc3)C[C@H]3OC(=O)[C@@H]1C32` (some centres undefined) the TGI [1] was over 100 µM, the TGI [2] was over 100 µM and the TGI [3] was over 100 µM. For the same compound, the TGI [4] was over 100 µM, the TGI [5] was over 100 µM and the TGI [6] was 21.9 µM. For the same compound, the TGI [7] was over 100 µM, the TGI [8] was over 100 µM and the TGI [9] was over 100 µM. It also gave a TGI [10] of over 100 µM, a TGI [11] of over 100 µM and a TGI [12] of over 100 µM. The TGI [13] was over 100 µM, the TGI [14] was over 100 µM and the TGI [15] was over 100 µM. For the same compound, the TGI [16] was over 100 µM, the TGI [17] was over 100 µM and the TGI [18] was over 100 µM. It also gave a TGI [19] of over 100 µM, a TGI [20] of over 100 µM and a TGI [21] of over 100 µM. The TGI [22] was over 100 µM, the TGI [23] was over 100 µM and the TGI [24] was over 100 µM. The TGI [25] was over 100 µM, the TGI [26] was over 100 µM and the TGI [27] was over 100 µM. It also gave a TGI [28] of over 100 µM, a TGI [29] of over 100 µM and a TGI [30] of over 100 µM. It also gave a TGI [31] of over 100 µM, a TGI [32] of over 100 µM and a TGI [33] of over 100 µM. For the same compound, the TGI [34] was over 100 µM, the TGI [35] was over 100 µM and the TGI [36] was over 100 µM. The TGI [37] was over 100 µM, the TGI [38] was over 100 µM and the TGI [39] was over 100 µM. For the same compound, the TGI [40] was over 100 µM, the TGI [41] was over 100 µM and the TGI [42] was over 100 µM. The TGI [43] was over 100 µM, the TGI [44] was over 100 µM and the TGI [45] was over 100 µM. The TGI [46] was over 100 µM, the TGI [47] was over 100 µM and the TGI [48] was over 100 µM. For the same compound, the TGI [49] was over 100 µM, the TGI [50] was over 100 µM and the TGI [51] was over 100 µM.

Compound `C=C1CCC2[C@](C)(CCC[C@]2(C)C(=O)O)[C@@H]1CCc1ccoc1` (some centres undefined) has a TGI [1] of over 100 µM, a TGI [2] of over 100 µM and a TGI [3] of over 100 µM. The TGI [4] was over 100 µM, the TGI [5] was over 100 µM and the TGI [6] was over 100 µM. For the same compound, the TGI [7] was 33 µM, the TGI [8] was over 100 µM and the TGI [9] was over 100 µM. It also gave a TGI [10] of over 100 µM, a TGI [11] of 88.4 µM and a TGI [12] of over 100 µM. It also gave a TGI [52] of 71.2 µM, a TGI [13] of over 100 µM and a TGI [15] of 80.3 µM. It also gave a TGI [16] of 55.7 µM, a TGI [17] of 84.8 µM and a TGI [18] of over 100 µM. The TGI [19] was 74.9 µM, the TGI [20] was 38 µM and the TGI [21] was over 100 µM. The TGI [53] was over 100 µM, the TGI [23] was over 100 µM and the TGI [24] was over 100 µM. It also gave a TGI [25] of over 100 µM, a TGI [26] of over 100 µM and a TGI [27] of 65.8 µM. The TGI [28] was 50.7 µM, the TGI [29] was over 100 µM and the TGI [30] was over 100 µM. For the same compound, the TGI [31] was 98.2 µM, the TGI [32] was 66 µM and the TGI [54] was over 100 µM. It also gave a TGI [33] of over 100 µM, a TGI [55] of over 100 µM and a TGI [35] of over 100 µM. For the same compound, the TGI [36] was over 100 µM, the TGI [37] was over 100 µM and the TGI [38] was over 100 µM. For the same compound, the TGI [39] was 99.4 µM, the TGI [56] was 85 µM and the TGI [57] was over 100 µM. For the same compound, the TGI [40] was 84.8 µM, the TGI [41] was over 100 µM and the TGI [42] was over 100 µM. For the same compound, the TGI [58] was over 100 µM, the TGI [43] was over 100 µM and the TGI [44] was 70.4 µM. The TGI [45] was over 100 µM, the TGI [46] was over 100 µM and the TGI [47] was 74.7 µM. It also gave a TGI [49] of 83.5 µM, a TGI [50] of over 100 µM and a TGI [51] of over 100 µM.

`COc1c(-c2ccc3c(c2)OCO3)oc2cc(O)cc(O)c2c1=O` was tested, and the TGI [1] was over 100 µM, the TGI [2] was 72.3 µM and the TGI [3] was over 100 µM. For the same compound, the TGI [4] was over 100 µM, the TGI [5] was 86.4 µM and the TGI [6] was over 100 µM. The TGI [7] was over 100 µM, the TGI [8] was over 100 µM and the TGI [9] was over 100 µM. The TGI [10] was over 100 µM, the TGI [11] was over 100 µM and the TGI [12] was over 100 µM. The TGI [52] was over 100 µM, the TGI [13] was 55.5 µM and the TGI [14] was over 100 µM. For the same compound, the TGI [15] was 53.3 µM, the TGI [16] was over 100 µM and the TGI [17] was over 100 µM. For the same compound, the TGI [18] was over 100 µM, the TGI [19] was over 100 µM and the TGI [20] was over 100 µM. It also gave a TGI [21] of over 100 µM, a TGI [22] of 75.3 µM and a TGI [23] of over 100 µM. The TGI [24] was over 100 µM, the TGI [25] was over 100 µM and the TGI [26] was over 100 µM. It also gave a TGI [27] of over 100 µM, a TGI [28] of over 100 µM and a TGI [29] of over 100 µM. The TGI [30] was 83.8 µM, the TGI [31] was over 100 µM and the TGI [54] was 95 µM. It also gave a TGI [33] of over 100 µM, a TGI [34] of over 100 µM and a TGI [55] of over 100 µM. The TGI [35] was over 100 µM, the TGI [36] was 42.5 µM and the TGI [37] was over 100 µM. For the same compound, the TGI [38] was over 100 µM, the TGI [39] was over 100 µM and the TGI [56] was over 100 µM. For the same compound, the TGI [57] was over 100 µM, the TGI [40] was over 100 µM and the TGI [41] was 85.4 µM. The TGI [42] was over 100 µM, the TGI [58] was over 100 µM and the TGI [43] was 53.6 µM. The TGI [44] was over 100 µM, the TGI [46] was 64.7 µM and the TGI [47] was over 100 µM. It also gave a TGI [48] of over 100 µM, a TGI [49] of over 100 µM and a TGI [50] of over 100 µM. For the same compound, the TGI [51] was over 100 µM.

`CCCCCCCCCC(=O)NC(CCC(=O)N(CCNC(=O)c1nc(-c2ccccc2)oc1-c1ccccc1)Cc1ccccc1)C(=O)O` (centres undefined) was tested, and the TGI [1] was 32 µM, the TGI [2] was 39.7 µM and the TGI [3] was 31.9 µM. For the same compound, the TGI [4] was 38 µM, the TGI [59] was 33.5 µM and the TGI [5] was 31.2 µM. For the same compound, the TGI [7] was 36.8 µM, the TGI [8] was 43.7 µM and the TGI [9] was 35.1 µM. For the same compound, the TGI [11] was 32.5 µM, the TGI [12] was 29.6 µM and the TGI [13] was 30.5 µM. For the same compound, the TGI [14] was 34.8 µM, the TGI [16] was 32.3 µM and the TGI [17] was 39.8 µM. The TGI [19] was 46.6 µM, the TGI [20] was 35.9 µM and the TGI [21] was 28.3 µM. It also gave a TGI [53] of 34.8 µM, a TGI [23] of 40.6 µM and a TGI [24] of 38.3 µM. It also gave a TGI [25] of 36.4 µM, a TGI [26] of over 100 µM and a TGI [27] of 55.5 µM. For the same compound, the TGI [28] was 33.9 µM, the TGI [29] was over 100 µM and the TGI [30] was 34.3 µM. It also gave a TGI [31] of 33.3 µM, a TGI [32] of 30.1 µM and a TGI [54] of 75.2 µM. For the same compound, the TGI [33] was 31.7 µM, the TGI [34] was 35.5 µM and the TGI [35] was 79 µM. For the same compound, the TGI [36] was 36.8 µM, the TGI [37] was 34.6 µM and the TGI [38] was 32.8 µM. The TGI [39] was 41.7 µM, the TGI [57] was 37.9 µM and the TGI [40] was 29.7 µM. For the same compound, the TGI [41] was 30.7 µM, the TGI [42] was 37.6 µM and the TGI [58] was 31.8 µM. For the same compound, the TGI [43] was 29.6 µM, the TGI [45] was 41.8 µM and the TGI [46] was 47.7 µM. It also gave a TGI [47] of 53.6 µM, a TGI [48] of 35.8 µM and a TGI [49] of 54.7 µM. The TGI [51] was 28.5 µM.
